The target in assay [1] is T1, binding of human NME7 to synthetic MUC1* peptide (Homo sapiens, UniProt P15941).
T1 construct: made in house; host or cells: E. coli
T1 sequence (P15941 1110-1154 limits assumed): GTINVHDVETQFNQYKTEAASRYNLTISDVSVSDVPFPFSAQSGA
The experiment in a line: ELISA: inhibition of NME7 binding to immobilized MUC1* peptide. The note with it: free peptides. An excerpt:
Those antibodies that inhibit cancer growth or transition to a more metastatic state are selected for use as anti-cancer therapeutics and may be administered to a patient for the treatment or prevention of cancers. Selected antibodies may be further optimized for example by engineering or making human chimera antibodies or fully human antibodies. […] We then generated antibodies using these peptides and then tested both the resultant antibodies as well as the immunizing peptides for their ability to: a) inhibit cancerous growth; and b) inhibit the induced transition from cancer cells to metastatic cancer cells. NME7 peptides were selected as immunizing agents for antibody production and as inhibitory agents themselves (FIG. 19 and Example 11). Peptides A1 (SEQ ID NO:141), A2 (SEQ ID NO:142), B1 (SEQ ID NO:143), B2 (SEQ ID NO:144) and B3 (SEQ ID NO:145), wherein A refers to the domain from which the peptide is derived, i.e. the NDPK A domain and the B denotes that the peptide is derived from the NDPK B domain (FIG. 15). Each peptide was used as an immunogen and injected into 2 rabbits each for production of polyclonal antibodies. The antibodies that were harvested from the blood of the immunized rabbits were purified over a column derivatized with the immunizing peptide. The purified antibodies were then tested for their ability to bind to human NME7. All of the resultant antibodies bound to human NME7 but not human NME1 as desired (FIG. 26A-B, Example 12). […] The antibodies were also tested for their ability to inhibit the binding of NME7 to a MUC1* extracellular domain peptide.
(§1) NME7 peptides were selected as immunizing agents for antibody production. NME7 peptides A1, A2, B1, B2 and B3 (FIG. 19) were chosen using a process of sequence alignment among human NME1, human NME7 and several bacterial NMEs that were homologous to human NME1 or human NME7. Five regions that had high sequence homology among all were identified. However, to prevent selecting peptides that would give rise to antibodies that would inhibit human NME1 as well as human NME7, we chose NME7 sequences that were adjacent to the homologous regions wherein those peptides had sequences that were different from human NME1. We did ELISA assays to see if the peptides on their own could bind to a synthetic MUC1* peptide on the surface and inhibit the binding of human NME7 or human NME1 to the immobilized peptide (FIG. 27).
(In general: An ELISA detects its analyte on a solid surface through an enzyme-linked reagent.)

The target of assay [2] is T2, binding of human NME1 to synthetic MUC1* peptide (Homo sapiens, UniProt P15941).
T2 sequence (P15941 1110-1154 limits assumed): T1 sequence (P15941 1110-1154 limits assumed)
Briefly: ELISA: inhibition of NME1 binding to immobilized MUC1* peptide. The settings on record: free peptides.
Text: as §1

Assay [3] deals with T47D breast cancer cells. Briefly: Cancer cell growth inhibition by anti-NME7 specific antibodies and immunizing peptides (Example 13). The format is cell-based, human. The note with it: added separately; RPMI with serum. How it is done:
Rabbits were immunized with NME7 peptides A1, A2, B1, B2, and B3 and antibodies were generated, collected and purified over a column to which the immunizing peptide had been conjugated. T47D breast cancer cells were plated and cultured according to ATCC protocols in RPMI media supplemented with serum. Immunizing peptides A1, A2, B1, B2, and B3, and the PSMGFR extracellular domain peptide of MUC1*, “FLR” here, were also added separately to growing T47D breast cancer cells. Taxol and the E6 anti-MUC1* Fab were added as controls. […] Note the comparison to inhibition using Taxol, which is a chemotherapy agent that kills healthy and cancer cells alike. Also, for comparison, a polyclonal antibody generated using a large stretch of NME7 from amino acid 100 to 376 is shown.
In a similar experiment, combinations of the antibodies generated from immunization with peptides A1, A2, B1, B2, and B3 as well as the peptides themselves were added to growing cancer cells at the concentrations indicated. […] In these two experiments, the cells were MUC1* positive breast cancer cells.

Assay [4] deals with T47D breast cancer cells. Briefly: Inhibition of NME7-AB or 2i induced transition of cancer cells to metastatic cancer cells (floaters, RT-PCR). The format is cell-based, human. The note with it: for expression of metastasis marker CXCR4 (RT-PCR) / floater cells (change from adherent cells to floaters): cells grown in NME7-AB or 2i; for floater cells (change from adherent cells to floaters): visual observation; for inhibition of transition to a more metastatic state (RT-PCR CXCR4, CHD1, SOX2): peptides alone, transition induced by 2i inhibitors. The procedure:
In one example, NME7-AB specific antibodies, generated by immunization with NME7-derived peptides A1, A2, B1, B2 and B3, as well as the immunizing peptides themselves, were added into the media along with either NME7-AB or 2i to determine if they inhibited the transformation of regular cancer cells to metastatic cancer stem cells. Antibodies and peptides were separately added along with the agent that causes metastatic transformation; in this case NME7-AB or the 2i inhibitors PD0325901 and CHIR99021. NME7-AB and 2i were separately used to induce the cancer cells to be transformed to a more aggressive metastatic state. 2i was used so that it could not be argued that the antibodies that were added to the media simply sopped up all of the NME7-AB so that the causative agent effectively was not there (Example 14).
Visual observation was independently recorded by two scientists as the experiment progressed (FIG. 30). […] The amount of mRNA, which indicates cell viability and growth, was measured. […] RT-PCR was used to measure expression levels of metastatic markers, including CXCR4.
In another experiment, the free peptides A1, A2, B1, B2 and B3 were added to cancer cells in culture that were undergoing transition to a more metastatic state by culturing in either NME7-AB or 2i.
In the first of these experiments, the antibodies generated by immunization with A1, A2, B1, B2 and B3 were tested for their ability to inhibit the metastatic transition induced by culture of T47D breast cancer cells in NME7-AB or in 2i inhibitors.
RT-PCR was used to measure expression levels of metastatic markers, including CXCR4. […] (See FIG. 31). […] Peptide B3 was especially effective as was antibody #61 that it generated. […] The amount of mRNA, which indicates cell viability and growth, was measured.

Assay [5] has as its system Human stem cells (iPS cat #SC101a-1). The experiment in a line: Human stem cell growth and pluripotency in NME7-AB or NM23-H1 dimers. The format is cell-based. The settings on record: 8 nM in Minimal Stem Cell Media. How it is done:
For testing recombinant NME7-AB for ability to maintain pluripotency and inhibit differentiation, a soluble variant of NME7, NME7-AB, was generated and purified. Human stem cells (iPS cat #SC101a-1, System Biosciences) were grown per the manufacturer's directions in 4 ng/ml bFGF over a layer of mouse fibroblast feeder cells for four passages. These source stem cells were then plated into 6-well cell culture plates (Vita™, Thermo Fisher) that had been coated with 12.5 ug/well of a monoclonal anti-MUC1* antibody, MN-C3. Cells were plated at a density of 300,000 cells per well. The base media was Minimal Stem Cell Media consisting of: 400 ml DME/F12/GlutaMAX I (Invitrogen #10565-018), 100 ml Knockout Serum Replacement (KO-SR, Invitrogen #10828-028), 5 ml 100×MEM Non-essential Amino Acid Solution (Invitrogen #11140-050) and 0.9 ml (0.1 mM) β-mercaptoethanol (55 mM stock, Invitrogen #21985-023). The base media can be any media. In a preferred embodiment, the base media is free of other growth factors and cytokines. To the base media was added either 8 nM of NME7-AB or 8 nM NM23-H1 refolded and purified as stable dimers. Media was changed every 48 hours and due to accelerated growth, had to be harvested and passaged at Day 3 post-plating.
Cell counts at the first harvest verified that culture in NME7 produced 1.4-times more cells than culture in NM23-H1 dimers.

“Also recorded” adds a separate entry of the source.

Take “AIFGKTKIQNAVHCTDLPEDGLLEVQYFF (peptide B3)”: in assay [1], the “inhibition of binding of NME7 to immobilized MUC1* peptide” value (from here on “inhibition of binding of NME7”) is given as “inhibited the binding”. For the same substance, the “inhibition of binding of NME1 to immobilized MUC1* peptide” value (“inhibition of binding of NME1” below) in assay [2] is “inhibited the binding”. In addition, the “inhibition of cancer cell growth” value in the assay with T47D breast cancer cells [3] was “potently inhibited the growth”. For the same substance, in the assay on T47D breast cancer cells [4], the “expression of metastasis marker CXCR4 (RT-PCR)” value (shortened to “expression”) is “inhibited the increase in expression”; the “floater cells (change from adherent cells to floaters)” value is on record as “inhibited the morphological change”; the “inhibition of transition to a more metastatic state (RT-PCR CXCR4, CHD1, SOX2)” value (from here on “inhibition of transition”) was “potently inhibit; also recorded: most inhibitory”.

In the case of DAGFEISAMQMFNMDRVNVE (peptide B1), the “inhibition of binding of NME7” value in assay [1] is on record as “inhibited the binding”. Besides, the “inhibition of binding of NME1” value in assay [2] is “inhibited the binding”. Besides, in the assay on T47D breast cancer cells [3], the “inhibition of cancer cell growth” value is reported as “potently inhibited the growth”. Moreover, in the assay with T47D breast cancer cells [4], the “expression” value was “inhibited the increase in expression”; the “floater cells (change from adherent cells to floaters)” value was “inhibited the morphological change”; the “inhibition of transition” value was “potently inhibit”.

In the case of EVYKGVVTEYHDMVTE (peptide B2), in assay [1], the “inhibition of binding of NME7” value was “inhibited the binding”. Further, in assay [2], the “inhibition of binding of NME1” value is “inhibited the binding”. Also, the “inhibition of cancer cell growth” value in the assay with T47D breast cancer cells [3] is listed as “potently inhibited the growth”. Moreover, in the assay on T47D breast cancer cells [4], the “expression” value is “inhibited the increase in expression”; the “floater cells (change from adherent cells to floaters)” value is listed as “inhibited the morphological change”; the “inhibition of transition” value is listed as “potently inhibit”.

With MLSRKEALDFHVDHQS (peptide A1), the “inhibition of binding of NME7” value in assay [1] is reported as “inhibited the binding”. The “inhibition of binding of NME1” value in assay [2] was “inhibited the binding”. The “inhibition of cancer cell growth” value in the assay with T47D breast cancer cells [3] is recorded as “potently inhibited the growth”. In the assay on T47D breast cancer cells [4], the “expression” value is reported as “inhibited the increase in expression”; the “floater cells (change from adherent cells to floaters)” value was “inhibited the morphological change”; the “inhibition of transition” value is “potently inhibit”.

With “NM23-H1 (NME1) dimers: NM23-H1 refolded and purified as stable dimers”, the “pluripotent stem cell growth / differentiation” value in assay [5] is “no differentiation even when 100% confluent”.

For the substance SGVARTDASES (peptide A2), the “inhibition of binding of NME7” value in assay [1] is given as “inhibited the binding”. Moreover, the “inhibition of binding of NME1” value in assay [2] is listed as “inhibited the binding”. For the same substance, in the assay on T47D breast cancer cells [3], the “inhibition of cancer cell growth” value was “potently inhibited the growth”. Further, in the assay on T47D breast cancer cells [4], the “expression” value is recorded as “inhibited the increase in expression”; the “floater cells (change from adherent cells to floaters)” value was “inhibited the morphological change”; the “inhibition of transition” value was “potently inhibit”.

The values are drawn from patent publication US12479928B2, “Anti-cancer peptide” (Minerva Biotechnologies Corporation, priority 2014, dated 2025).
